Values joined by “and” are separate entries in the source; they are usually repeats but may differ in a detail not shown here. Equal values may be shown once.
Tests used:
[1] = system: rhesus monkeys with spontaneous chronic kidney disease; assay: Effect on cystatin C (CysC), 8-week administration; assay type: in vivo, Macaca mulatta (Rhesus Macaque)
Method: In the trial, animals were brought in three stages. […] Glomerular filtration rate […]: creatinine (Cr-P), urea nitrogen (BUN) and cystatin (CysC) were detected, and the eGFR value was obtained by calculation. It was performed once before the administration and once every two weeks after the administration. […] ELISA kit was used for NT-proBNP test. [table]

[2] = system: rhesus monkeys with spontaneous chronic kidney disease; assay: Effect on heart function, cardiac Doppler ultrasound, 8-week administration
Method: (§1) In the trial, animals were brought in three stages.
This was performed once before administration and once after administration. UACR=MALB/Cr—U. • Blood pressure: the blood pressure was checked after anesthesia, including systolic blood pressure (SBP), diastolic blood pressure (DBP), mean blood pressure (MBP) and heart rate (HR). This was performed once before administration and once at weeks 4 and 8 respectively after administration. • Cardiac GE Doppler ultrasound: historical cardiac ultrasonography once within 1 year (selected animals), once before administration (within 30 days (D-30) of the baseline period), and once at week 8 after administration.
Anesthesia method: 15 mg/kg of ketamine hydrochloride was used for intramuscular injection anesthesia. According to the animal anesthesia state, the supplemental anesthesia will be performed after judgment by veterinarian. Each supplemental anesthesia dose was ½ of the initial dose.
Detection method: The animal was placed in the left decubitus position, and the 6S-RS probe (frequency 2.7-8.0 MHz) was used for image acquisition.
Analysis method: After the image was collected and saved, the supporting analysis workstation EchoPAC Software was used to repeatedly detect various indicators of systolic and diastolic functions in 3 consecutive cardiac cycles.
Testing indicators and ultrasonic technology: see Table 9 below.
Testing equipment: GE Vivid S5 color Doppler ultrasound diagnostic system.

[3] = system: rhesus monkeys with spontaneous chronic kidney disease; assay: Effect on blood pressure (SBP, DBP, MBP, HR) after anesthesia, 8-week administration; assay type: in vivo, Macaca mulatta (Rhesus Macaque)
Text: as §1
Route of administration: Oral administration.
After anesthesia, the animal was placed in a supine position. The left upper arm was shaved clean, and a suitable size cuff was tied according to the standard. The blood oxygen probe was clamped on the animal's finger or toe (except for the left hand), and the red light-sensitive surface was on the side of the finger pad. The blood pressure of the animal was continuously measured for 3 times in the automatic mode with an interval of 1 min. If the difference of DBP, SBP and MBP of blood pressure measured more than three times was not significant (the difference between the highest value and the lowest value was less than 15 mmHg), the measurement was completed.
Testing equipment: GE B40i electrophysiological monitor.
See Table 16 for the effects of administration of each administration group on blood pressure. The blood pressure test of primates required anesthesia, so it was necessary to control the variability of heart rate at various time points to make statistics.

[4] = 1 mg/kg (n = 5), Baseline, single animals and Mean ± SD
[5] = 2 mg/kg (n = 5), Baseline, single animals and Mean ± SD
[6] = 5 mg/kg (n = 6), Baseline, single animals and Mean ± SD
[7] = 1 mg/kg qd (n = 5), 4 weeks, mean
[8] = 1 mg/kg qd (n = 5), 8 weeks, mean
[9] = 1 mg/kg qd (n=5), after W8 administration, p<0.05 vs placebo
[10] = 2 mg/kg qd (n = 5), 4 weeks, mean

Compound: COC(=O)NCCCn1nc([C@@H](C)N(C(=O)[C@H]2CNCCO2)C2CC2)c2ccc(C)nc21.O=C(O)C[C@H](O)C(=O)O [malate of compound of Formula I]
- CysC ([1]; 1 mg/kg (n = 5), 2 weeks): 1.66 mg/L and 1.64 mg/L and 1.83 mg/L and 1.55 mg/L
- CysC ([1]; 1 mg/kg (n = 5), 2 weeks, mean): 1.70 ± 0.12 mg/L
- CysC ([1]; 1 mg/kg (n = 5), 4 weeks): 1.49 mg/L and 1.43 mg/L and 1.57 mg/L and 1.76 mg/L and 1.50 mg/L
- CysC ([1]; 1 mg/kg (n = 5), 4 weeks, mean): 1.55 ± 0.13 mg/L
- CysC ([1]; 1 mg/kg (n = 5), 6 weeks): 1.48 mg/L and 1.61 mg/L and 1.62 mg/L and 1.68 mg/L and 1.50 mg/L
- CysC ([1]; 1 mg/kg (n = 5), 6 weeks, mean): 1.58 ± 0.08 mg/L
- CysC ([1]; 1 mg/kg (n = 5), 8 weeks): 1.51 mg/L and 1.59 mg/L and 1.62 mg/L and 1.77 mg/L
- CysC ([1]; 1 mg/kg (n = 5), 8 weeks, mean): 1.60 ± 0.11 mg/L
- CysC [1, 4]: 1.67 mg/L and 1.80 mg/L and 1.72 mg/L and 1.84 mg/L and 1.75 mg/L
- CysC ([1]; 1 mg/kg (n = 5), Baseline, single animals and Mean ± SD, mean): 1.76 ± 0.07 mg/L
- CysC ([1]; 2 mg/kg (n = 5), 2 weeks): 1.44 mg/L and 1.97 mg/L and 1.71 mg/L and 1.73 mg/L and 1.51 mg/L
- CysC ([1]; 2 mg/kg (n = 5), 2 weeks, mean): 1.67 ± 0.21 mg/L
- CysC ([1]; 2 mg/kg (n = 5), 4 weeks): 1.31 mg/L and 1.77 mg/L and 1.56 mg/L and 1.43 mg/L and 1.47 mg/L
- CysC ([1]; 2 mg/kg (n = 5), 4 weeks, mean): 1.51 ± 0.17 mg/L
- CysC ([1]; 2 mg/kg (n = 5), 6 weeks): 1.39 mg/L and 1.76 mg/L and 1.65 mg/L and 1.54 mg/L and 1.42 mg/L
- CysC ([1]; 2 mg/kg (n = 5), 6 weeks, mean): 1.55 ± 0.16 mg/L
- CysC ([1]; 2 mg/kg (n = 5), 8 weeks): 1.36 mg/L and 1.68 mg/L and 1.58 mg/L and 1.55 mg/L and 1.47 mg/L
- CysC ([1]; 2 mg/kg (n = 5), 8 weeks, mean): 1.53 ± 0.12 mg/L
- CysC [1, 5]: 1.57 mg/L and 1.87 mg/L and 1.72 mg/L and 1.69 mg/L and 1.56 mg/L
- CysC ([1]; 2 mg/kg (n = 5), Baseline, single animals and Mean ± SD, mean): 1.68 ± 0.13 mg/L
- CysC ([1]; 5 mg/kg (n = 6), 2 weeks): 1.63 mg/L and 1.45 mg/L and 2.63 mg/L and 1.46 mg/L and 1.64 mg/L
- CysC ([1]; 5 mg/kg (n = 6), 2 weeks, mean): 1.74 ± 0.44 mg/L
- CysC ([1]; 5 mg/kg (n = 6), 4 weeks): 1.68 mg/L and 1.73 mg/L and 1.64 mg/L and 2.41 mg/L and 1.36 mg/L and 1.44 mg/L
- CysC ([1]; 5 mg/kg (n = 6), 4 weeks, mean): 1.71 ± 0.37 mg/L
- CysC ([1]; 5 mg/kg (n = 6), 6 weeks): 1.59 mg/L and 1.47 mg/L and 1.80 mg/L and 2.45 mg/L and 1.40 mg/L and 1.46 mg/L
- CysC ([1]; 5 mg/kg (n = 6), 6 weeks, mean): 1.70 ± 0.40 mg/L
- CysC ([1]; 5 mg/kg (n = 6), 8 weeks): 1.46 mg/L and 1.69 mg/L and 1.66 mg/L and 2.29 mg/L and 1.50 mg/L and 1.39 mg/L
- CysC ([1]; 5 mg/kg (n = 6), 8 weeks, mean): 1.67 ± 0.33 mg/L
- CysC [1, 6]: 1.49 mg/L and 1.63 mg/L and 1.61 mg/L and 2.52 mg/L and 1.47 mg/L and 1.55 mg/L
- CysC ([1]; 5 mg/kg (n = 6), Baseline, single animals and Mean ± SD, mean): 1.71 ± 0.40 mg/L
- E/Ea ([2]; 1 mg/kg (n = 5), 8 weeks): 10.68 and 11.36 and 8.16 and 8.95 and 10.64
- Ea ([2]; 1 mg/kg (n = 5), 8 weeks): 5.35 cm/s and 5.65 cm/s and 6.99 cm/s and 5.37 cm/s and 5.06 cm/s
- LVEF ([2]; 1 mg/kg (n = 5), 8 weeks): 63.95% and 55.81% and 54.03% and 61.01% and 49.37%
- E/Ea ([2]; 1 mg/kg (n = 5), Baseline): 10.50 and 9.53 and 9.22 and 8.68 and 10.36
- Ea ([2]; 1 mg/kg (n = 5), Baseline): 5.90 cm/s and 6.31 cm/s and 4.81 cm/s and 5.18 cm/s and 6.37 cm/s
- LVEF [2, 4]: 65.25% and 55.89% and 54.86% and 69.87% and 47.92%
- E/Ea ([2]; 2 mg/kg (n = 5), 8 weeks): 10.63 and 6.35 and 7.84 and 9.88 and 6.22
- Ea ([2]; 2 mg/kg (n = 5), 8 weeks): 5.00 cm/s and 6.66 cm/s and 8.01 cm/s and 5.91 cm/s and 6.82 cm/s
- LVEF ([2]; 2 mg/kg (n = 5), 8 weeks): 58.54% and 67.80% and 57.13% and 58.03% and 62.85%
- LVEF [2, 5]: 54.41% and 70.41% and 57.45% and 57.90% and 62.76%
- E/Ea ([2]; 5 mg/kg (n = 6), 8 weeks): 7.38 and 9.25 and 8.22 and 6.12 and 11.07
- Ea ([2]; 5 mg/kg (n = 6), 8 weeks): 8.53 cm/s and 8.26 cm/s and 6.47 cm/s and 8.40 cm/s and 6.62 cm/s
- LVEF ([2]; 5 mg/kg (n = 6), 8 weeks): 62.99% and 45.89% and 73.88% and 54.16% and 55.90%
- LVEF [2, 6]: 63.71% and 42.11% and 71.95% and 49.98% and 59.46%
- LVEF % compared with the baseline ([2]; 5 mg/kg, 8-week administration, 2 animals (No. 5073 and No. 287) with low ejection fraction): increased LVEF %
- adverse reaction in the systolic and diastolic function (echocardiography) ([2]; rhesus monkey, in vivo): no obvious adverse reaction
- DBP ([3]; 1 mg/kg qd (n = 5), 4 weeks): 51 mmHg and 54 mmHg and 65 mmHg
- SBP ([3]; 1 mg/kg qd (n = 5), 4 weeks): 104 mmHg and 109 mmHg and 124 mmHg
- DBP [3, 7]: 61 ± 12 mmHg
- SBP [3, 7]: 118 ± 17 mmHg
- DBP ([3]; 1 mg/kg qd (n = 5), 8 weeks): 53 mmHg and 49 mmHg
- SBP ([3]; 1 mg/kg qd (n = 5), 8 weeks): 94 mmHg and 89 mmHg and 114 mmHg
- DBP [3, 8]: 60 ± 12 mmHg
- SBP [3, 8]: 111 ± 20 mmHg
- DBP ([3]; 1 mg/kg qd (n = 5), Baseline): 54 mmHg and 56 mmHg and 60 mmHg and 59 mmHg and 70 mmHg
- DBP ([3]; 1 mg/kg qd (n = 5), Baseline, mean): 60 ± 6 mmHg
- SBP ([3]; 1 mg/kg qd (n = 5), Baseline, single animals and Mean ± SD): 101 mmHg and 105 mmHg and 125 mmHg and 121 mmHg and 129 mmHg
- SBP ([3]; 1 mg/kg qd (n = 5), Baseline, single animals and Mean ± SD, mean): 116 ± 13 mmHg
- DBP reduced by on average, compared with the baseline [3, 9]: 5±4 mmHg
- SBP reduced by on average, compared with the baseline [3, 9]: 11±4 mmHg
- DBP ([3]; 2 mg/kg qd (n = 5), 4 weeks): 55 mmHg and 83 mmHg and 66 mmHg
- SBP ([3]; 2 mg/kg qd (n = 5), 4 weeks): 110 mmHg and 163 mmHg and 138 mmHg
- DBP [3, 10]: 71 ± 11 mmHg
- SBP [3, 10]: 140 ± 20 mmHg
- DBP ([3]; 2 mg/kg qd (n = 5), 8 weeks): 52 mmHg and 70 mmHg and 62 mmHg and 73 mmHg
- SBP ([3]; 2 mg/kg qd (n = 5), 8 weeks): 102 mmHg and 160 mmHg and 121 mmHg and 133 mmHg

— patent US20230330093A1, “APPLICATION OF NITROGEN-CONTAINING SATURATED HETEROCYCLIC COMPOUND” (SHANGHAI PHARMACEUTICALS HOLDING CO., LTD., priority 2020, published 2023)
